In one assay the test system is Pseudomonas aeruginosa. The assay can be described thus: Broth two-fold serial dilution MIC test. The format is cell-based, Pseudomonas aeruginosa (ATCC 15442). A digest of the protocol: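 Broth two-fold serial dilution MIC (500 to 0.25 ppm) was run against Pseudomonas aeruginosa, with compound from 1% stock in acetone/methanol/water 5:3:2. Vessels inoculated with standardized broth-grown cells were incubated, then scored for growth. MIC is the lowest concentration giving complete growth inhibition.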

The next assay concerns Staphylococcus aureus. The assay can be described thus: Broth two-fold serial dilution MIC test. The format is cell-based, Staphylococcus aureus (ATCC 6538). The method in brief: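 Broth two-fold serial dilution from 500 ppm down to 0.25 ppm, compound delivered from acetone/methanol/water stock, inoculated with standardized cell suspension and incubated at an organism-appropriate temperature. MIC is the lowest concentration giving complete growth inhibition.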

A further assay relates to Proteus mirabilis. Kind of assay: MIC test, side-by-side comparison. The class given is cell-based. Conditions: Table 4 side-by-side, P. mirabilis; for MIC: Proteus mirabilis. From the text: (§1) A minimum inhibitory concentration (MIC) value is obtained using a broth, two-fold serial dilution test performed as follows: A stock solution or dispersion of the test compound, typically at a concentration of 1%, is made in a 5:3:2 solvent solution of acetone. methanol, and water. A volume of the stock solution is dispensed into culture media to give an initial starting test concentration of 500 ppm compound.
(§2) When the test is ready to be done, each vessel in the dilution series, except the first vessel, contains an equal volume of compound free broth. The first vessel contains twice the volume of broth with the starting concentration of test compound. One half of the broth from the first vessel is transferred to the second vessel- After being mixed, one half the resulting volume is removed from the second vessel and transferred to the third vessel. The entire cycle is repeated sufficiently to give a series of concentrations amounting to 500, 250, 125, 63, 31, 16, 8, and 4, 2, 1, 0.5, 0.25 ppm respectively.
(§3) Each vessel is then inoculated with a cell suspension of the appropriate test organism. Bacteria are grown in broth, fungi on agar slants for a time and at a temperature appropriate to the species being tested, and algae are a mixture of green algae and blue-green bacteria grown in a nutrient media. At the end of the growth period, in the case of bacteria, the broth is vortexed to disperse the cells.
(§4) In the case of fungi, the spores are harvested by pipetting water onto the slant and dislodging the spores with a sterile loop. The cell/spore suspension is standardized by controlling incubation time, temperature, and the volume of the diluent. The suspension is then used to inoculate the vessels containing the broth compound.
(§5) The vessels are then incubated at the appropriate temperature. After the incubation, the vessels are examined for growth/no growth. The minimum inhibitory concentration (MIC) is defined as the lowest concentration of compound that results in complete inhibition of growth of the test organism.
(§6) These five compounds were tested side-by-side against six organisms, Pseudomonas aeruginosa (P. aeruginosa), Klebsiella pneurnoniae (K. pneumoniae), Enterobacter aerogenes (E. aerogenes), Proteus mirabilis (P. mirabilis), Staphylococcus aureus (S. aureus), and Aspergillus niger (A. niger). The MIC tests were performed as in example 6.

For another assay, the system named is Enterobacter aerogenes. The assay can be described thus: MIC test, side-by-side comparison. Particulars: Table 4 side-by-side, E. Aerogenes; for MIC: Klebsiella aerogenes. The class given is cell-based.
Text: as §1, §2, §3, §4, §5, §6

Another assay relates to Klebsiella pneurnoniae. The assay can be described thus: MIC test, side-by-side comparison. The format is cell-based. Particulars: for MIC: read-out: MIC Values.
Text: as §1, §2, §3, §4, §5, §6

A further assay deals with Escherichia coli. The assay can be described thus: Broth two-fold serial dilution MIC test. Particulars: Table 2, Ecol. The format is cell-based, Escherichia coli (ATCC 11229). The method in brief:
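Broth two-fold serial dilutions ran from 500 down to 0.25 ppm, prepared from a stock in acetone/methanol/water (5:3:2). Each tube received a standardized bacterial suspension and was incubated at a temperature suited to the species. MIC is the lowest concentration giving complete growth inhibition.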

The subject of the next assay is Aspergillus niger. Kind of assay: Broth two-fold serial dilution MIC test. The class given is cell-based, Aspergillus niger (ATCC 6275). The method in brief: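 Two-fold broth serial dilution from 500 ppm down to 0.25 ppm, compound stock in acetone/methanol/water 5:3:2. Vessels inoculated with standardized spore suspension harvested from agar slants, incubated at a species-appropriate temperature, then scored for growth/no growth. MIC is the lowest concentration giving complete growth inhibition.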

The mark [1] stands for this setting: Pseudomonas aeruginosa, Table 4 side-by-side, P. aeruginosa, read-out: MIC Values.
Setting [2] is: Staphylococcus aureus, Table 4 side-by-side, S. aureus, read-out: MIC Values.
[3] abbreviates: Aspergillus niger, Table 4 side-by-side, A. niger, read-out: MIC Values.

Converted amounts (≈) assume the structure as drawn. Like-named read-outs stand apart in the source and are kept apart here.

As to `CCCCCCCCCCCCCC[N+]1(CC#CI)CCOCC1` [Compound 42, 4-tetradecyl-4-(3-iodopropargyl)-morpholinium methanesulfonate], the MIC is listed as 1 ppm in the assay on Pseudomonas aeruginosa (Table 2, Psae, M9G media); 4 ppm against Pseudomonas aeruginosa (Table 2, Psae, TSB media); less than 0.25 ppm against Staphylococcus aureus (Table 2, Saur, M9G media); 0.5 ppm in the assay with Staphylococcus aureus (Table 2, Saur, TSB media); less than 0.25 ppm in the assay on Escherichia coli (M9G media); less than 0.25 ppm in the assay with Escherichia coli (TSB media). Also, in the assay on Aspergillus niger (Table 2, Anig, TSB media), the MIC came out at 1 ppm. The “MIC Values” against Pseudomonas aeruginosa (Table 4 side-by-side, P. aeruginosa) came out at 16 ppm; against Staphylococcus aureus (Table 4 side-by-side, S. aureus), 1 ppm; against Proteus mirabilis it was 4 ppm; against Enterobacter aerogenes it was 1 ppm; in the assay with Klebsiella pneurnoniae (Table 4 side-by-side, K. Pneumoniae) it was 4 ppm; with Aspergillus niger (Table 4 side-by-side, A. niger), 8 ppm.
In the case of `CCCCCCCCCCCCCC[N+]1(CC#CI)CCCCC1` [Compound 25, 1-(tetradecyl)-1-(3-iodopropargyl)-piperidinium 4-methylbenzenesulfonate], the MIC worked out at 8 µg/mL in the assay with Pseudomonas aeruginosa (setting [1]); 8 ppm against Pseudomonas aeruginosa (Table 2, Psae, M9G media); 2 ppm against Pseudomonas aeruginosa (Table 2, Psae, TSB media); 0.5 µg/mL in the assay on Staphylococcus aureus (setting [2]); 0.25 ppm against Staphylococcus aureus (Table 2, Saur, M9G media); 0.25 ppm with Staphylococcus aureus (Table 2, Saur, TSB media). Also, the MIC in the assay with Proteus mirabilis came out at 4 µg/mL; with Enterobacter aerogenes it was 1 µg/mL; with Klebsiella pneurnoniae it was 4 µg/mL; in the assay with Escherichia coli (M9G media), 2 ppm; against Escherichia coli (TSB media) it was 16 ppm; in the assay on Aspergillus niger (setting [3]) it was 8 µg/mL. In the assay on Aspergillus niger (Table 2, Anig, TSB media), this molecule returned an MIC of 8 ppm.
With `CCCCCCCCCCCCCC[N+]1(CC#CI)CCOCC1` [Compound 41, 4-tetradecyl-4-(3-iodoprolyargyl)-morpholinium benzenesulfonate], the MIC in the assay on Pseudomonas aeruginosa (setting [1]) is 8 µg/mL; against Pseudomonas aeruginosa (Table 2, Psae, M9G media), 2 ppm; against Pseudomonas aeruginosa (Table 2, Psae, TSB media), 4 ppm; in the assay on Staphylococcus aureus (setting [2]), 0.5 µg/mL; against Staphylococcus aureus (Table 2, Saur, M9G media), less than 0.25 ppm; in the assay on Staphylococcus aureus (Table 2, Saur, TSB media), 0.5 ppm. Besides, the MIC in the assay with Proteus mirabilis is 4 µg/mL; in the assay on Enterobacter aerogenes it was 2 µg/mL; in the assay with Klebsiella pneurnoniae it was 4 µg/mL; against Escherichia coli (M9G media), less than 0.25 ppm; in the assay with Escherichia coli (TSB media), less than 0.25 ppm; in the assay on Aspergillus niger (setting [3]), 8 µg/mL. The molecule further displayed an MIC against Aspergillus niger (Table 2, Anig, TSB media) of 2 ppm.
Regarding `IC#CCN1CCOCC1` [Compound J2, N-(3-iodo-2-propynyl)-morpholine, reference compound], the MIC in the assay on Pseudomonas aeruginosa (setting [1]) is more than 500 µg/mL; in the assay on Staphylococcus aureus (setting [2]), 250 µg/mL (≈ 996 µM); with Proteus mirabilis, 500 µg/mL (≈ 1990 µM); against Enterobacter aerogenes, 250 µg/mL (≈ 996 µM); in the assay with Klebsiella pneurnoniae, 500 µg/mL (≈ 1990 µM); with Aspergillus niger (setting [3]), 8 µg/mL (≈ 31.9 µM).
Turning to `CCCCCCCCCCOC(=O)C[N+]1(CC#CI)CCCC1` [Compound 65, 1-(decyioxycarbonyl)methyl-1-(3-iodopropargyl)-pyrrolidinium 4methylbenzenesulfonate], the MIC in the assay with Pseudomonas aeruginosa (Pseudomonas aeruginosa, Table 2, Psae, M9G media, read-out: MIC) is 64 µg/mL; in the assay on Pseudomonas aeruginosa (Pseudomonas aeruginosa, Table 2, Psae, TSB media, read-out: MIC), 125 µg/mL; in the assay on Staphylococcus aureus (Staphylococcus aureus, Table 2, Saur, M9G media, read-out: MIC) it was 2 µg/mL; with Staphylococcus aureus (Staphylococcus aureus, Table 2, Saur, TSB media, read-out: MIC), 1 µg/mL; with Escherichia coli (Escherichia coli, M9G media, read-out: MIC) it was 2 µg/mL; in the assay with Escherichia coli (Escherichia coli, TSB media, read-out: MIC), 4 µg/mL. In addition, the MIC in the assay with Aspergillus niger (Aspergillus niger, Table 2, Anig, TSB media, read-out: MIC) was determined as 16 µg/mL.
Take `CCCCCCCCCCCCCC[N+]1(CC#CI)CCCC1` [Compound 39, 1-tetradecyl-1-(3-iodopropargyl)-pyrrolidinium methanesulfonate]: the MIC is recorded as 63 ppm in the assay with Pseudomonas aeruginosa (Table 2, Psae, M9G media); 63 ppm in the assay on Pseudomonas aeruginosa (Table 2, Psae, TSB media); less than 0.25 ppm against Staphylococcus aureus (Table 2, Saur, M9G media); less than 0.25 ppm against Staphylococcus aureus (Table 2, Saur, TSB media); 1 ppm against Escherichia coli (M9G media); 2 ppm against Escherichia coli (TSB media). The molecule further came in with an MIC against Aspergillus niger (Table 2, Anig, TSB media) of 0.5 ppm.
For `IC#CCN1CCCCC1` [Compound J1, N-(3-iodo-2-propynyl)-piperidine, reference compound], the MIC in the assay on Pseudomonas aeruginosa (setting [1]) was more than 500 µg/mL; with Staphylococcus aureus (setting [2]), 125 µg/mL (≈ 502 µM); against Proteus mirabilis it was 125 µg/mL (≈ 502 µM); against Enterobacter aerogenes, 32 µg/mL (≈ 128 µM); in the assay on Klebsiella pneurnoniae, 125 µg/mL (≈ 502 µM); in the assay with Aspergillus niger (setting [3]) it was 16 µg/mL (≈ 64.2 µM).

The values are drawn from patent US5354862A, “Preparation and the use of halopropargylated cyclic quaternary ammonium compounds as antimicrobial agents” (Rohm and Haas Company, priority 1993, dated 1994).
